Reference: paper PMC4891385 (Clinical Drug Investigation, 2016)
Like-named read-outs stand apart in the source and are kept apart here. One block for each molecule: values may come before it.

Key:
[1] = furosemide 40 mg with lesinurad 400 mg vs alone
[2] = substrate: O=C(O)CSc1nnc(Br)n1-c1ccc(C2CC2)c2ccccc12; assay: [14C]-lesinurad uptake, substrate test, hOCT1 MDCK-II cells; assay type: in vitro ADME, human; conditions: other: lesinurad as substrate of OCT1
[3] = substrate: O=C(O)CSc1nnc(Br)n1-c1ccc(C2CC2)c2ccccc12; assay: [14C]-lesinurad uptake, substrate test, OAT3 oocytes; assay type: in vitro ADME; conditions: other: lesinurad as substrate of OAT3
[4] = atorvastatin 40 mg with lesinurad 200 mg vs alone

increase in AUC∞ [4]: 20%
increase in Cmax [4]: 16%
increase in Cmax (atorvastatin 40 mg with lesinurad 400 mg vs alone): 17–34%
Molecule: CC(C)c1c(C(=O)Nc2ccccc2O)c(-c2ccccc2)c(-c2ccc(F)cc2)n1CCC(O)CC(O)CC(=O)O (stereo not drawn) [2-OH-atorvastatin]

reduction of amount excreted in urine [1]: approximately 25%
Molecule: NS(=O)(=O)c1cc(C(=O)O)c(NCc2ccco2)cc1Cl [Furosemide, furosemide]

The next lines start with the molecule.

B1: OCT1 (Homo sapiens) (protein)
chain: MPTVDDILEQVGESGWFQKQAFLILCLLSAAFAPICVGIVFLGFTPDHHCQSPGVAELSQRCGWSPAEELNYTVPGLGPAGEAFLGQCRRYEVDWNQSALSCVDPLASLATNRSHLPLGPCQDGWVYDTPGSSIVTEFNLVCADSWKLDLFQSCLNAGFLFGSLGVGYFADRFGRKLCLLGTVLVNAVSGVLMAFSPNYMSMLLFRLLQGLVSKGNWMAGYTLITEFVGSGSRRTVAIMYQMAFTVGLVALTGLAYALPHWRWLQLAVSLPTFLFLLYYWCVPESPRWLLSQKRNTEAIKIMDHIAQKNGKLPPADLKMLSLEEDVTEKLSPSFADLFRTPRLRKRTFILMYLWFTDSVLYQGLILHMGATSGNLYLDFLYSALVEIPGAFIALITIDRVGRIYPMAMSNLLAGAACLVMIFISPDLHWLNIIIMCVGRMGITIAIQMICLVNAELYPTFVRNLGVMVCSSLCDIGGIITPFIVFRLREVWQALPLILFAVLGLLAAGVTLLLPETKGVALPETMKDAENLGRKAKPKENTIYLKVQTSEPSGT
Km [2]: 20 µM

B2: OAT3 (Homo sapiens) (protein)
chain: MTFSEILDRVGSMGHFQFLHVAILGLPILNMANHNLLQIFTAATPVHHCRPPHNASTGPWVLPMGPNGKPERCLRFVHPPNASLPNDTQRAMEPCLDGWVYNSTKDSIVTEWDLVCNSNKLKEMAQSIFMAGILIGGLVLGDLSDRFGRRPILTCSYLLLAASGSGAAFSPTFPIYMVFRFLCGFGISGITLSTVILNVEWVPTRMRAIMSTALGYCYTFGQFILPGLAYAIPQWRWLQLTVSIPFFVFFLSSWWTPESIRWLVLSGKSSKALKILRRVAVFNGKKEEGERLSLEELKLNLQKEISLAKAKYTASDLFRIPMLRRMTFCLSLAWFATGFAYYSLAMGVEEFGVNLYILQIIFGGVDVPAKFITILSLSYLGRHTTQAAALLLAGGAILALTFVPLDLQTVRTVLAVFGKGCLSSSFSCLFLYTSELYPTVIRQTGMGVSNLWTRVGSMVSPLVKITGEVQPFIPNIIYGITALLGGSAALFLPETLNQPLPETIEDLENWSLRAKKPKQEPEVEKASQRIPLQPHGPGLGSS
Km [3]: 2 µM
